Measurements taken from ChEMBL document CHEMBL1152459, “Drugs designed to inhibit human p38 mitogen-activated protein kinase activation treat Toxoplasma gondii and Encephalitozoon cuniculi infection” (Antimicrob Agents Chemother, 2007).
Calls of active or inactive are those of the source. The rule behind the calls is not given here.

Columns and labels:
[1] = tested on: Toxoplasma gondii; assay: Antiprotozoal activity against 2000Toxoplasma gondii RH tachyzoites infected 30 days after initial 100 parasite infection in CBA/J mouse assessed as mouse survival time at 60 mg/kg, ip administered 2 hrs postinfection for 7 consecutive days; conditions: route intraperitoneal
[2] = tested on: Toxoplasma gondii; assay: Antiprotozoal activity against 2000Toxoplasma gondii RH tachyzoites infected 30 days after initial 100 parasite infection in CBA/J mouse assessed as mouse survival time at 5 mg/kg, ip administered 2 hrs postinfection for 7 consecutive days; conditions: route intraperitoneal
[3] = tested on: Toxoplasma gondii; assay: Antiprotozoal activity against 2000Toxoplasma gondii RH tachyzoites infected 30 days after initial 20 parasite infection in CBA/J mouse assessed as mouse survival time at 30 mg/kg, ip administered 2 hrs postinfection for 7 consecutive days; conditions: route intraperitoneal
[4] = tested on: Toxoplasma gondii; assay: Antiprotozoal activity against 2000Toxoplasma gondii RH tachyzoites infected 30 days after initial 20 parasite infection in CBA/J mouse assessed as mouse survival time at 60 mg/kg, ip administered 2 hrs postinfection for 7 consecutive days; conditions: route intraperitoneal
[5] = tested on: Toxoplasma gondii; assay: microbe, parasite or virus in culture; conditions: RH
Description: Antiprotozoal activity against 1 MOI Toxoplasma gondii RH tachyzoites infected in confluent HFF assessed as inhibition of [3H]uracil incorporation into tachyzoites treated 4 hrs after infection measured after overnight incubation post uracil addition by liquid scintillation counting

[6] = tested on: Toxoplasma gondii; assay: microbe, parasite or virus in culture; conditions: ME49
Description: Antiprotozoal activity against 5 MOI Toxoplasma gondii Me49 tachyzoites infected in confluent HFF assessed as inhibition of [3H]uracil incorporation into tachyzoites treated 4 hrs after infection measured after overnight incubation post uracil addition by liquid scintillation counting

[7] = tested on: Toxoplasma gondii; assay: (§1) Antiprotozoal activity against 5 MOI wild type Toxoplasma gondii Me49 tachyzoites infected in confluent HFF assessed as inhibition of [3H]uracil incorporation into tachyzoites at 0.25 to 10 uM treated 4 hrs after infection measured after overnight incubation post uracil addition by liquid scintillation counting; type: functional, organism-based
[8] = tested on: Toxoplasma gondii; assay: as §1, with “SB-203580-resistant” for “wild type”, “SBRMe49-2” for “Me49”; type: functional, organism-based
[9] = target: T1, Mitogen-activated protein kinase 1 (Toxoplasma gondii, UniProt Q5SC61); assay: Inhibition of Toxoplasma gondii recombinant MAPK1 expressed in Escherichia coli; type: cell-free
T1 sequence (Q5SC61 whole entry): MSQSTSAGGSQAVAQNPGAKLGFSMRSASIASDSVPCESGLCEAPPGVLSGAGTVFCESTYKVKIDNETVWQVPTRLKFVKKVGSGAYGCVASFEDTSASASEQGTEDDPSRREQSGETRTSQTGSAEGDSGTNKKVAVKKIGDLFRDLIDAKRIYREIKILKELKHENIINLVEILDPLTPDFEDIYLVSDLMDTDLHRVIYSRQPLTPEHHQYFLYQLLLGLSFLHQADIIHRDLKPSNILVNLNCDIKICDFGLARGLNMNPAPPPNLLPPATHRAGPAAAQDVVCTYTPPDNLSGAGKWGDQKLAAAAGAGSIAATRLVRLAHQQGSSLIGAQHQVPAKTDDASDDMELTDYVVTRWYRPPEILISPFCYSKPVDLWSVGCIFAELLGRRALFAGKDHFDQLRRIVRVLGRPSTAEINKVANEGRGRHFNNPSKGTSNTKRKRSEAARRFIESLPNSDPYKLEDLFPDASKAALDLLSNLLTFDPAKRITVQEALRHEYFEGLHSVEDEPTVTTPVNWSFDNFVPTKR

[10] = tested on: Toxoplasma gondii; assay: Antiprotozoal activity against 1000 Toxoplasma gondii RH tachyzoites infected in CBA/J mouse assessed as prolongation of survival of mous at 3.8 mg/kg, ip administered 24 hrs postinfection for 7 consecutive days; type: functional, organism-based; parameters: dose 3.8 mg/kg
[11] = tested on: Toxoplasma gondii; assay: Antiprotozoal activity against 1000 Toxoplasma gondii RH tachyzoites infected in CBA/J mouse assessed as prolongation of survival of mous at 7.5 mg/kg, ip administered 24 hrs postinfection for 7 consecutive days; type: functional, organism-based; parameters: dose 7.5 mg/kg
[12] = tested on: Toxoplasma gondii; assay: Antiprotozoal activity against 1000 Toxoplasma gondii RH tachyzoites infected in CBA/J mouse assessed as prolongation of survival of mous at 15 mg/kg, ip administered 24 hrs postinfection for 7 consecutive days; type: functional, organism-based; parameters: dose 15 mg/kg
[13] = tested on: Toxoplasma gondii; assay: Antiprotozoal activity against 1000 Toxoplasma gondii RH tachyzoites infected in CBA/J mouse assessed as prolongation of survival of mous at 30 mg/kg, ip administered 24 hrs postinfection for 7 consecutive days; type: functional, organism-based; parameters: dose 30 mg/kg
[14] = tested on: Toxoplasma gondii; assay: Antiprotozoal activity against 1000 Toxoplasma gondii RH tachyzoites infected in CBA/J mouse assessed as prolongation of survival of mous at 60 mg/kg, ip administered 24 hrs postinfection for 7 consecutive days; type: functional, organism-based; parameters: dose 60 mg/kg
[15] = tested on: Toxoplasma gondii; assay: Antiprotozoal activity against 100 Toxoplasma gondii RH tachyzoites infected in CBA/J mouse assessed as prolongation of survival of mous at 30 mg/kg, ip twice daily for 7 consecutive days administered 2 hrs postinfection; type: functional, organism-based; parameters: dose 30 mg/kg
[16] = tested on: Toxoplasma gondii; assay: Antiprotozoal activity against 100 Toxoplasma gondii RH tachyzoites infected in CBA/J mouse survival at 60 mg/kg, ip administered 2 hrs postinfection once daily for 7 consecutive days; type: functional; conditions: route intraperitoneal
[17] = tested on: Toxoplasma gondii; assay: Antiprotozoal activity against 100 Toxoplasma gondii RH tachyzoites infected in CBA/J mouse assessed as prolongation of survival of mous at 30 mg/kg, ip administered 24 hrs postinfection twice daily for 7 consecutive days; type: functional, organism-based; parameters: dose 30 mg/kg
[18] = tested on: Toxoplasma gondii; assay: Antiprotozoal activity against 100 Toxoplasma gondii RH tachyzoites infected in CBA/J mouse assessed as prolongation of survival of mous at 60 mg/kg, ip administered 24 hrs postinfection once daily for 7 consecutive days; type: functional, organism-based; parameters: dose 60 mg/kg
[19] = tested on: Toxoplasma gondii; assay: Antiprotozoal activity against 20 Toxoplasma gondii RH tachyzoites infected in CBA/J mouse assessed as prolongation of survival of mous at 30 mg/kg, ip administered 2 hrs postinfection for 7 consecutive days; type: functional; conditions: route intraperitoneal
[20] = tested on: Toxoplasma gondii; assay: Antiprotozoal activity against 20 Toxoplasma gondii RH tachyzoites infected in CBA/J mouse assessed as prolongation of survival of mous at 60 mg/kg, ip administered 2 hrs postinfection for 7 consecutive days; type: functional; conditions: route intraperitoneal
[21] = tested on: Toxoplasma gondii; assay: Antiprotozoal activity against 20 Toxoplasma gondii RH tachyzoites infected in CBA/J mouse assessed as prolongation of survival of mous at 50 mg/kg, po administered 2 hrs postinfection for 7 consecutive days; type: functional, organism-based; parameters: dose 50 mg/kg
[22] = tested on: Toxoplasma gondii; assay: Antiprotozoal activity against 20 Toxoplasma gondii RH tachyzoites infected in CBA/J mouse assessed as prolongation of survival of mous at 17 mg/kg, po administered 2 hrs postinfection for 7 consecutive days; type: functional, organism-based; parameters: dose 17 mg/kg
[23] = tested on: Mus musculus; assay: Toxicity in CBA/J mouse assessed as occasional and transient fur ruffling at 60 mg/kg, ip; type: organism-based; parameters: dose 60 mg/kg, route intraperitoneal; conditions: in vivo
[24] = tested on: Mus musculus; assay: Toxicity in CBA/J mouse at 30 mg/kg, ip; type: organism-based; parameters: dose 30 mg/kg, route intraperitoneal; conditions: in vivo
[25] = tested on: Mus musculus; assay: Toxicity in CBA/J mouse at 50 mg/kg, po; type: organism-based; parameters: dose 50 mg/kg, route oral; conditions: in vivo
[26] = tested on: Mus musculus; assay: Toxicity in CBA/J mouse at 17 mg/kg, po; type: organism-based; parameters: dose 17 mg/kg, route oral; conditions: in vivo
[27] = tested on: Encephalitozoon cuniculi; assay: Antiprotozoal activity against Encephalitozoon cuniculi infected in CD8 knockout […] mouse assessed as prolongation of survival of mous-related absence of ascites fluid and sluggishness at 36 mg/kg, ip administered 2 days after infection for 15 consecutive days; type: functional, organism-based; parameters: dose 36 mg/kg
[28] = tested on: Encephalitozoon cuniculi; assay: Antiprotozoal activity against Encephalitozoon cuniculi infected in CD8 knockout […] mouse mouse survival at 6 mg/kg, ip administered 2 days after infection for 15 consecutive days; type: functional, organism-based; parameters: dose 6 mg/kg
[29] = tested on: Toxoplasma gondii; assay: Antiprotozoal activity against 100 Toxoplasma gondii RH tachyzoites infected in CBA/J mouse survival at 60 mg/kg, ip administered 2 hrs postinfection once daily for 7 consecutive days in presence of pyrimethamine 5 mg/kg, po; type: functional
[30] = tested on: Toxoplasma gondii; assay: Antiprotozoal activity against 100 Toxoplasma gondii RH tachyzoites infected in CBA/J mouse survival at 60 mg/kg, ip administered 2 hrs postinfection once daily for 7 consecutive days in presence of sulfadiazine 75 mg/liter; type: functional; conditions: route intraperitoneal
[31] = target: Mitogen-activated protein kinase 14 (Homo sapiens, UniProt Q16539)
Mitogen-activated protein kinase 14, sequence (Q16539 whole entry): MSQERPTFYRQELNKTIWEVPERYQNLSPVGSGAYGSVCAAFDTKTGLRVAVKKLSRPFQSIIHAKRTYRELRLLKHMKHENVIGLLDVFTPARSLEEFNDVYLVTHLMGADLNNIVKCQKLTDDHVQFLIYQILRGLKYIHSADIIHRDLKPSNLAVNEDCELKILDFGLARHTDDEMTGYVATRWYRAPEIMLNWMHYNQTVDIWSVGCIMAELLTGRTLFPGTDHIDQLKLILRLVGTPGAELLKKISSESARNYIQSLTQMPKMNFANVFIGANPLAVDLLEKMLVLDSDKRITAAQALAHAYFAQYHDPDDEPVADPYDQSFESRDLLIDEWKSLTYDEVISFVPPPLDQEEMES
Description: Inhibition of human recombinant p38alpha assessed as [gamma33P]ATP utilization by microplate scintillation counting

For C[S+]([O-])c1ccc(-c2nc(-c3ccc(F)cc3)c(-c3ccncc3)[nH]2)cc1 (stereo not drawn) [SB-203580], the Activity [1] was 30 days, the Activity [2] was 30 days and the Activity [3] was 30 days. For the same molecule, the Activity [4] was 30 days, the IC50 [5] was 8.5 µM and the IC50 [6] was 2.5 µM.
In the case of CCc1nc(-c2ccc(OC)cc2)[nH]c1-c1ccncc1 [SB-202474], the Activity [7] is reported as “inactive”, the Activity [8] is reported as “inactive” and the Activity [1] is reported as 30 days. It also gave an Activity [2] of 30 days, an Activity [3] of 30 days and an Activity [4] of 30 days.
OCCC#Cc1nc(-c2ccc(F)cc2)c(-c2ccncc2)n1CCCc1ccccc1 [RWJ-67657] was tested, and the IC50 [9] was 0.2 µM, the Activity [8] was “inactive” and the Activity [10] was “inactive”. For the same molecule, the Activity [11] was “inactive”, the Activity [12] was “inactive” and the Activity [13] was “inactive”. The Activity [14] was “Active”, the Activity [15] was “inactive” and the Activity [16] was 40%. The Activity [17] was “inactive”, the Activity [18] was “inactive” and the Activity [19] was 100%. For the same molecule, the Activity [20] was 100%, the Activity [21] was “inactive” and the Activity [22] was “inactive”. For the same molecule, the Activity [23] was “Toxic”, the Activity [24] was “Non-toxic” and the Activity [25] was “Non-toxic”. The Activity [26] was “Non-toxic”, the Activity [27] was “Active” and the Activity [28] was “inactive”. It also gave an Activity [1] of 30 days, an Activity [2] of 30 days and an Activity [3] of 30 days. It also gave an Activity [4] of 30 days, an Activity [29] of 80% and an Activity [30] of 80%. It also gave an IC50 [31] of 1 µM, an IC50 [5] of 5 µM and an IC50 [6] of 0.8 µM.
In the case of Oc1ccc(-c2nc(-c3ccc(F)cc3)c(-c3ccncc3)[nH]2)cc1, the Activity [8] is reported as “inactive”.
